Like-named read-outs stand apart in the source and are kept apart here.
Experiments:
Type in all cases: in vivo
Spodoptera littoralis [1] = assay: Spodoptera littoralis persistence test on sprayed cotton plants (increased safety profile / bio-degradability); details: for Control after 10 days/%: leaves excised 10 days after treatment; for pest or weed control at 12.5 ppm: Spodoptera littoralis
Procedure: Biological Examples Showing Increased Safety Profile:
Spodoptera littoralis (Egyptian Cotton Leafworm)
Cotton plants in the 5th leaf stage (around 5 weeks old) are treated in an automated turn table spray chamber. Plants are stored in the greenhouse length during the whole test period.
2, 16 and optionally 10 days after treatment 4 leaves from each sample are excised, placed into 14 cm plastic petri dishes on wet filter paper. The infestation of 10 L3-Spodoptera littoralis is made immediately afterwards. After an incubation period of 6 days the samples are checked for mortality.
In the following series of experiments the compounds of the invention are compared with the corresponding isoxazoline analogues from the prior art on Spodoptera littoralis (Egyptian cotton leafworm) performed as described in the method above.

Spodoptera littoralis [2] = assay: Spodoptera littoralis (Egyptian cotton leafworm) cotton leaf disc test; details: foliar, 72 h, 200 ppm sprayed on cotton leaf discs, mortality, feeding behavior, growth regulation 3 days after treatment
Procedure: Spodoptera littoralis (Egyptian Cotton Leafworm): Cotton leaf discs were placed on agar in a 24-well microtiter plate and sprayed with test solutions at an application rate of 200 ppm. After drying, the leaf discs were infested with […]. The samples were checked for mortality, feeding behavior, and growth regulation 3 days after treatment (DAT).

Heliothis virescens = Heliothis virescens (tobacco budworm) egg test on artificial diet; details: 96 h, 200 ppm (concentration in well 18 ppm), eggs on artificial diet, egg mortality, larval mortality, growth regulation after 4 days
Procedure: Heliothis virescens (Tobacco Budworm): Eggs (0-24 h old) were placed in 24-well microtiter plate on artificial diet and treated with test solutions at an application rate of 200 ppm (concentration in well 18 ppm) by pipetting. After an incubation period of 4 days, samples were checked for egg mortality, larval mortality, and growth regulation.

Plutella xylostella = Plutella xylostella (diamond back moth) artificial diet test; details: 144 h, 200 ppm (concentration in well 18 ppm), L2 larvae, larval mortality and growth regulation after 6 days
Procedure: (§1) Plutella xylostella (Diamond Back Moth): 24-well microtiter plate (MTP) with artificial diet was treated with test solutions at an application rate of 200 ppm (concentration in well 18 ppm) by pipetting. After drying, the MTPs were infested with L2 larvae (7-12 per well). After an incubation period of 6 days, samples were checked for larval mortality and growth regulation.

Diabrotica balteata = Diabrotica balteata (corn root worm) artificial diet test; details: 120 h, 200 ppm (concentration in well 18 ppm), L2 larvae, larval mortality and growth regulation after 5 days
Procedure: as §1, with “Diabrotica balteata (Corn Root Worm): A” for “Plutella xylostella (Diamond Back Moth):”, “(6-10” for “(7-12”, “5” for “6”

Thrips tabaci = Thrips tabaci (onion thrips) sunflower leaf disc test; details: foliar, 168 h, 200 ppm sprayed on sunflower leaf discs, mixed ages, mortality after 7 days
Procedure: Thrips tabaci (Onion Thrips): Sunflower leaf discs were placed on agar in a 24-well microtiter plate and sprayed with test solutions at an application rate of 200 ppm. After drying, the leaf discs were infested with a thrips population of mixed ages. After an incubation period of 7 days, samples were checked for mortality.

Tetranychus urticae = Tetranychus urticae (two-spotted spider mite) bean leaf disc test; details: foliar, 192 h, 200 ppm sprayed on bean leaf discs, mixed ages, egg, larval and adult mortality 8 days later
Excerpt: Tetranychus urticae (Two-Spotted Spider Mite): Bean leaf discs on agar in 24-well microtiter plates were sprayed with test solutions at an application rate of 200 ppm. After drying, the leaf discs are infested with mite populations of mixed ages. 8 days later, discs are checked for egg mortality, larval mortality, and adult mortality.

[3] = 12.5 ppm on cotton plants, 10 L3 larvae, mortality after 6 days incubation
[4] = 48 h, 12.5 ppm on cotton plants, leaves excised 2 days after treatment, 10 L3 larvae, mortality after 6 days incubation, read-out: Control after 2 days/%
[5] = 384 h, 12.5 ppm on cotton plants, leaves excised 16 days after treatment, 10 L3 larvae, mortality after 6 days incubation, read-out: Control after 16 days/%

SMILES | Control after 10 days/% (Spodoptera littoralis [1]; [3]) [%] | pest or weed control at 12.5 ppm (Spodoptera littoralis [1]; [4]) [%] | pest or weed control at 12.5 ppm (Spodoptera littoralis [1]; [5]) [%] | pest or weed control at 200 ppm (Spodoptera littoralis [2]) [%] | pest or weed control at 200 ppm (Heliothis virescens) [%] | pest or weed control at 200 ppm (Plutella xylostella) [%] | pest or weed control at 200 ppm (Diabrotica balteata) [%] | pest or weed control at 200 ppm (Thrips tabaci) [%] | pest or weed control at 200 ppm (Tetranychus urticae) [%] | pest or weed control at 12.5 ppm (Spodoptera littoralis [1]; 48 h, read-out: Control after 2 days/%) [%] | pest or weed control at 12.5 ppm (Spodoptera littoralis [1]; 384 h, read-out: Control after 16 days/%) [%] | Control after 2 days/% (Spodoptera littoralis [1]; 12.5 ppm on cotton plants, leaves excised 2 days after treatment, 10 L3 larvae, mortality after 6 days incubation) [%] | Control after 16 days/% (Spodoptera littoralis [1]; 12.5 ppm on cotton plants, leaves excised 16 days after treatment, 10 L3 larvae, mortality after 6 days incubation) [%]
Cc1cc(C2=NOC(c3cc(Cl)cc(Cl)c3)(C(F)(F)F)C2)ccc1C(=O)NCc1ccccn1 (centres unmarked) [Compound 1-061 from EP1731512, reference compound] | 100 | 100 | 100 | – | – | – | – | – | – | – | – | – | –
Cc1cc(C2=NOC(c3cc(Cl)cc(Cl)c3)(C(F)(F)F)C2)ccc1C(=O)NCC(=O)NCC(F)(F)F (centres unmarked) [Compound 3-086 from EP1731512, reference compound] | 100 | 100 | 100 | – | – | – | – | – | – | – | – | – | –
Cc1cc(C2=NSC(c3cc(Cl)cc(Cl)c3)(C(F)(F)F)C2)ccc1C(=O)NCC(=O)NCC(F)(F)F (centres unmarked) [Compound A01, 4-[5-(3,5-dichlorophenyl)-5-(trifluoromethyl)-4H-isothiazol-3-yl]-2-methyl-N-[2-oxo-2-(2,2,2-trifluoroethylamino)ethyl]benzamide] | 60 | 100 | 10 | ≥ 80 | ≥ 80 | ≥ 80 | ≥ 80 | ≥ 80 | ≥ 80 | – | – | – | –
Cc1cc(C2=NSC(c3cc(Cl)cc(Cl)c3)(C(F)(F)F)C2)ccc1C(=O)NC1CS(=O)(=O)C1 (centres unmarked) [Compound A02, 4-[5-(3,5-dichlorophenyl)-5-(trifluoromethyl)-4H-isothiazol-3-yl]-N-(1,1-dioxothietan-3-yl)-2-methyl-benzamide] | 35 | – | – | ≥ 80 | ≥ 80 | ≥ 80 | ≥ 80 | ≥ 80 | ≥ 80 | 100 | 5 | – | –
Cc1cc(C2=NOC(c3cc(Cl)cc(Cl)c3)(C(F)(F)F)C2)ccc1C(=O)NC1CS(=O)(=O)C1 (centres unmarked) [Compound A10 from WO2009/080250, reference compound] | 100 | 100 | 100 | – | – | – | – | – | – | – | – | – | –
Cc1cc(C2=NSC(c3cc(Cl)cc(Cl)c3)(C(F)(F)F)C2)ccc1C(=O)NC(C)c1ccccc1 (centres unmarked) [Compound A12] | – | 30 | – | ≥ 80 | ≥ 80 | ≥ 80 | ≥ 80 | ≥ 80 | ≥ 80 | – | – | – | –
Cc1cc(C2=NSC(c3cc(Cl)cc(Cl)c3)(C(F)(F)F)C2)ccc1C(=O)NCc1ccccn1 (centres unmarked) [Compound A16] | 25 | 100 | 10 | ≥ 80 | ≥ 80 | ≥ 80 | ≥ 80 | ≥ 80 | ≥ 80 | – | – | – | –
Cc1cc(C2=NSC(c3cc(Cl)cc(Cl)c3)(C(F)(F)F)C2)ccc1C(=O)NC1CCC1 (centres unmarked) [Compound A24] | – | – | – | – | – | – | – | – | – | – | – | 100 | 0
Cc1cc(C2=NSC(c3cc(Cl)cc(Cl)c3)(C(F)(F)F)C2)ccc1C(=O)NC1(C#N)CC1 (centres unmarked) [Compound A45] | – | 75 | 0 | ≥ 80 | ≥ 80 | ≥ 80 | ≥ 80 | ≥ 80 | ≥ 80 | – | – | – | –
Cc1cc(C2=NSC(c3cc(Cl)cc(Cl)c3)(C(F)(F)F)C2)ccc1C(=O)NCC(C)C (centres unmarked) [Compound A46] | – | 40 | 0 | ≥ 80 | ≥ 80 | ≥ 80 | ≥ 80 | ≥ 80 | ≥ 80 | – | – | – | –
Cc1cc(C2=NSC(c3cc(Cl)cc(Cl)c3)(C(F)(F)F)C2)ccc1C(=O)NCC1CC1 (centres unmarked) [Compound A53] | – | 85 | 0 | ≥ 80 | ≥ 80 | ≥ 80 | ≥ 80 | ≥ 80 | ≥ 80 | – | – | – | –
Cc1cc(C2=NSC(c3cc(Cl)cc(Cl)c3)(C(F)(F)F)C2)ccc1C(=O)Nc1ccc(F)cc1 (centres unmarked) [Compound A59] | – | 100 | 10 | ≥ 80 | ≥ 80 | ≥ 80 | ≥ 80 | ≥ 80 | ≥ 80 | – | – | – | –
N#Cc1cc(C2=NSC(c3cc(Cl)cc(Cl)c3)(C(F)(F)F)C2)ccc1-n1cncn1 (centres unmarked) [Compound B1, 5-[5-(3,5-dichlorophenyl)-5-(trifluoromethyl)-4,5-dihydro-isothiazol-3-yl]-2-(1,2,4-triazol-1-yl)benzonitrile] | – | – | – | ≥ 80 | ≥ 80 | ≥ 80 | ≥ 80 | ≥ 80 | ≥ 80 | – | – | – | –
N#Cc1cc(C2=NS[C@@](c3cc(Cl)c(Cl)c(Cl)c3)(C(F)(F)F)C2)ccc1-n1cncn1 [Compound B2, 2-(1,2,4-triazol-1-yl)-5-[(5S)-5-(3,4,5-trichlorophenyl)-5-(trifluoromethyl)-4H-isothiazol-3-yl]benzonitrile] | – | – | – | ≥ 80 | ≥ 80 | ≥ 80 | ≥ 80 | ≥ 80 | ≥ 80 | – | – | – | –
CCO/N=C/NC(=O)c1ccc(C2=NSC(c3cc(Cl)cc(Cl)c3)(C(F)(F)F)C2)cc1C (centres unmarked) [Compound C2, 4-[5-(3,5-dichlorophenyl)-5-(trifluoromethyl)-4H-isothiazol-3-yl]-N-[(E)-ethoxyiminomethyl]-2-methyl-benzamide] | – | – | – | ≥ 80 | ≥ 80 | ≥ 80 | ≥ 80 | ≥ 80 | ≥ 80 | – | – | – | –
Cc1cc(C2=NSC(c3cc(Cl)c(Cl)c(Cl)c3)(C(F)(F)F)C2)ccc1C(=O)NC1CS(=O)(=O)C1 (centres unmarked) [Compound D2, N-(1,1-dioxothietan-3-yl)-2-methyl-4-[5-(3,4,5-trichlorophenyl)-5-(trifluoromethyl)-4H-isothiazol-3-yl]benzamide] | – | – | – | ≥ 80 | ≥ 80 | ≥ 80 | ≥ 80 | ≥ 80 | ≥ 80 | – | – | – | –
Cc1cc(C2=NSC(c3cc(Cl)c(Cl)c(Cl)c3)(C(F)(F)F)C2)ccc1C(=O)NC1C[S+]([O-])C1 (centres unmarked) [Compound D3, 2-methyl-N-(1-oxothietan-3-yl)-4-[5-(3,4,5-trichlorophenyl)-5-(trifluoromethyl)-4H-isothiazol-3-yl]benzamide] | – | – | – | ≥ 80 | ≥ 80 | ≥ 80 | ≥ 80 | ≥ 80 | ≥ 80 | – | – | – | –

— patent US9078444B2, “Isothiazoline derivatives as insecticidal compounds” (Syngenta Participations AG, priority 2011, dated 2015)
